From the supplement of paper PMC10307832

Columns and labels:
Experiment in all cases: relative viability (nuclei count vs DMSO), 5 days (fraction); higher = more cells survive
EKVX = test system: EKVX
Method in brief: (§1)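 Cells from lung cancer lines were seeded into 1536-well plates and, one day later, dosed by pin tool. Treatments were either a single drug or a fixed dose of an anchor drug with five library-drug doses (not always all listed) in √10 steps. After 5 days, nuclei were stained in a one-step fixation (final 0.05% Triton X-100, 1% formaldehyde, 1 ug/ml Hoechst) and counted on 4× images, and relative viability is the treated-to-vehicle nuclei ratio, as the median of duplicate plates.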

HCC-827 = test system: HCC-827
Method in brief: as §1

PC-3 [JPC-3] = test system: PC-3 [JPC-3]
Method in brief: as §1

NCI-H661 = test system: NCI-H661
Method in brief: as §1

NCI-H1650 = test system: NCI-H1650
Method in brief: as §1

NCI-H1975 = test system: NCI-H1975
Method in brief: as §1

PC-14 = test system: PC-14
Method in brief: as §1

LK-2 = test system: LK-2
Method in brief: as §1

RERF-LC-KJ = test system: RERF-LC-KJ
Method in brief: as §1

H3255 = test system: H3255
Method in brief: as §1

NCI-H1355 = test system: NCI-H1355
Method in brief: as §1

CCN(CC)CCCCNc1ncc2cc(-c3cc(OC)cc(OC)c3)c(NC(=O)NC(C)(C)C)nc2n1 + CC(=O)Nc1cccc(-n2c(=O)n(C3CC3)c(=O)c3c(Nc4ccc(I)cc4F)n(C)c(=O)c(C)c32)c1 [Trametinib] (partner 0.02 µM)
relative viability (EKVX; first compound 0.03162 µM): 0.4
relative viability (EKVX; first compound 0.1 µM): 0.365
relative viability (EKVX; first compound 0.3162 µM): 0.328
relative viability (EKVX; first compound 1 µM): 0.311
relative viability (HCC-827; first compound 0.01 µM): 0.539
relative viability (HCC-827; first compound 0.03162 µM): 0.59
relative viability (HCC-827; first compound 0.1 µM): 0.585
relative viability (HCC-827; first compound 0.3162 µM): 0.587
relative viability (HCC-827; first compound 1 µM): 0.516
relative viability (PC-3 [JPC-3]; first compound 0.03162 µM): 0.698
relative viability (PC-3 [JPC-3]; first compound 0.1 µM): 0.766
relative viability (PC-3 [JPC-3]; first compound 0.3162 µM): 0.72
relative viability (PC-3 [JPC-3]; first compound 1 µM): 0.683
relative viability (NCI-H661; first compound 0.01 µM): 0.592
relative viability (NCI-H661; first compound 0.03162 µM): 0.589
relative viability (NCI-H661; first compound 0.1 µM): 0.569
relative viability (NCI-H661; first compound 0.3162 µM): 0.563
relative viability (NCI-H661; first compound 1 µM): 0.473
relative viability (NCI-H1650; first compound 0.01 µM): 0.695
relative viability (NCI-H1650; first compound 0.03162 µM): 0.564
relative viability (NCI-H1650; first compound 0.1 µM): 0.783
relative viability (NCI-H1650; first compound 0.3162 µM): 0.598
relative viability (NCI-H1650; first compound 1 µM): 0.457
relative viability (NCI-H1975; first compound 0.01 µM): 0.328
relative viability (NCI-H1975; first compound 0.03162 µM): 0.314
relative viability (NCI-H1975; first compound 0.1 µM): 0.345
relative viability (NCI-H1975; first compound 0.3162 µM): 0.405
relative viability (NCI-H1975; first compound 1 µM): 0.348
relative viability (PC-14; first compound 0.01 µM): 0.956
relative viability (PC-14; first compound 0.03162 µM): 0.836
relative viability (PC-14; first compound 0.1 µM): 1.16
relative viability (PC-14; first compound 0.3162 µM): 0.759
relative viability (PC-14; first compound 1 µM): 0.591
relative viability (LK-2; first compound 0.01 µM): 0.856
relative viability (LK-2; first compound 0.03162 µM): 0.649
relative viability (LK-2; first compound 0.1 µM): 0.756
relative viability (LK-2; first compound 0.3162 µM): 0.597
relative viability (LK-2; first compound 1 µM): 0.299
relative viability (RERF-LC-KJ; first compound 0.01 µM): 0.925
relative viability (RERF-LC-KJ; first compound 0.03162 µM): 0.923
relative viability (RERF-LC-KJ; first compound 0.1 µM): 0.94
relative viability (RERF-LC-KJ; first compound 0.3162 µM): 0.906
relative viability (RERF-LC-KJ; first compound 1 µM): 0.818
relative viability (H3255; first compound 0.01 µM): 0.627
relative viability (H3255; first compound 0.1 µM): 0.596
relative viability (H3255; first compound 0.3162 µM): 0.711
relative viability (H3255; first compound 1 µM): 0.566
relative viability (NCI-H1355; first compound 0.01 µM): 0.462
relative viability (NCI-H1355; first compound 0.03162 µM): 0.436
relative viability (NCI-H1355; first compound 0.1 µM): 0.479
relative viability (NCI-H1355; first compound 0.3162 µM): 0.502
